From patent US12084459B2, “2-(4-{1-[6-(4-isopropyl-phenyl)-imidazo[2,1-b][1,3,4]thiadiazol-2-yl]-piperidin-4-ylmethyl}-piperazin-1-yl)-ethanol and use thereof” (Urifer Ltd., priority 2020, dated 2024)

Legend:
[1] = test system: metastatic adenocarcinoma PC3 prostate Cancer cells; assay: viability / killing of PC3 cells; assay type: cell-based; details: E266 versus E260; compound (I) as tartarate salt in 0.5% Tween-80; FIG. 6
Procedure: (§1) The compound (I), as tartarate salt was dissolved in 0.5% Tween-80 to affect the viability of several cell lines as follows.
(§2) The effect of the compound (I) (E266) on the growth profile of cancer cells which express Fer was tested. The cells that were tested were: the metastatic colon cancer cell line—SW620, the metastatic pancreatic ductal-adenocarcinoma SU.86.86 cancer cell-line—SU.86.86, the metastatic Triple Negative breast cancer cell line—MDA-MB-231, and the metastatic prostate cancer cell-line—PC3. The effect of the compound (I) (E266) on FS11 cells, a non malignant fibroblastic cell line, was also studied.

[2] = test system: metastatic colon cancer SW620 cells; assay: viability / killing of SW620 cells; assay type: cell-based; details: E266 versus E260; compound (I) as tartarate salt in 0.5% Tween-80; FIG. 3
Procedure: as §1, §2

[3] = test system: metastatic Triple negative MDA-MB-231 Breast cancer cells; assay: viability / killing of MDA-MB-231 cells; assay type: cell-based; details: E266 versus E260; compound (I) as tartarate salt in 0.5% Tween-80; FIG. 5
Procedure: as §1, §2

normal Epithelial cells = assay: effect on normal epithelial cells; assay type: cell-based; details: FIG. 2
Procedure: Compound (I) was dissolved in 20% hydroxypropylcyclodextrane and the volume of administration (IP) was 10 ml/kg.

[4] = test system: metastatic pancreatic ductal adenocarcinoma Su.86.86 cancer cells; assay: viability / killing of Su.86.86 cells; assay type: cell-based; details: E266 versus E260; compound (I) as tartarate salt in 0.5% Tween-80; FIG. 4
Procedure: as §1, §2

[5] = insolubility level in PBS/Polysorbate-80 (Tween 80) solution; assay type: physicochemical; details: 0.5 mM and 1 mM in PBS/Polysorbate-80 (Tween 80) solution at 25° C. (FIG. 1A, 1B)
H358 derived xenografts = H358 derived xenografts in Nude mice; assay type: in vivo; details: 25 mg/kg daily intraperitoneal in 1% Tween 80, H358 xenografts, FIG. 7
Source text: In vivo activity of the E266 (compound (I) of the present application) compared to that of the E260 (EP 2401283) in H358 derived xenografts in immune-compromised (Nude) mice.
In order to compare the relative efficacy of E266 and E260 in inhibiting the development and progression of malignant tumors in-vivo, the activity in xenograft model in mice was examined for both compounds. H358 derived xenografts in immune-compromised were elicited in (Nude) mice. The H358 cells, which are metastatic bronchioloalveolar carcinoma (BAC)-non-small cell lung cancer (NSCLC) cells, were subcutaneously injected to the back of the nude mice. When the developing xenografts reached 100 mm^3 size, the inflicted animals were divided into three groups, 10 mice in each group. One group received daily intraperitoneal injection of the solvent 1% Tween 80. This solvent/emulsifier is biocompatible and is approved for pharmaceutical applications in humans. The second group received daily intraperitoneal injection of 25 mg/kg E260 dissolved in 1% Tween 80, and the third group got daily intraperitoneal injection of 25 mg/kg, E266 dissolved in the 1% Tween 80, solvent. The progression of the elicited xenografts was monitored by measuring twice a week the volumes of the developing tumors.

CC(C)c1ccc(-c2cn3nc(N4CCC(CN5CCN(CCO)CC5)CC4)sc3n2)cc1 [Compound E266, 2-(4-{1-[6-(4-isopropyl-phenyl)-imidazo[2,1-b][1,3,4]thiadiazol-2-yl]-piperidin-4-ylmethyl}-piperazin-1-yl)-ethanol]
killing metastatic adenocarcinoma PC3 prostate Cancer cells [1]: comparable activity
killing metastatic colon cancer SW620 cells [2]: comparable activity
killing metastatic Triple negative MDA-MB-231 Breast cancer cells [3]: comparable activity
effect on normal Epithelial cells (normal Epithelial cells): no effect
killing metastatic pancreatic ductal adenocarcinoma Su.86.86 cancer cells [4]: comparable activity
solubility (insolubility level) [5]: soluble to a certain extent
progression of the developing tumors (xenograft volume) (H358 derived xenografts): managed to halt the progression of the developing tumors
